Measured values: PubChem BioAssay (NCI)
Where “and” joins values, the source holds several entries; their conditions need not be identical. Equal entries are not always repeated.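 Test compounds were applied to cells in 96-well plates for 48 hours at 5 doses. Abbreviation: GI50, concentration required for 50% inhibition of growth. At the TGI there is no net growth.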

System: MDA-MB-468 breast
Assay: NCI-60 cell line screen, 48 h

For COc1ccc(NC(=O)COCCOCCNC[C@@H]2C(=O)O[C@H]3[C@H]2CC/C(COC(=O)OC/C2=C/CC[C@@]4(C)O[C@H]4[C@H]4OC(=O)[C@@H](CN(C)C)[C@@H]4CC2)=C\CC[C@@]2(C)O[C@@H]32)c(O)c1C(N)=O, which GI50 is on record?
The GI50 was 3040 nM.

And the TGI?
Its TGI is 10.8 µM.

What does the source list for CCN1Cc2c(ccc(F)c2C#N)O[C@@H](C)CNC(=O)c2c(N)nn3ccc1nc23?
GI50: 12500 nM; TGI: 34.3 µM

Which results are given for O=C(c1ccccc1)C(Br)C(Br)c1cccc([N+](=O)[O-])c1 (stereo not given)?
GI50: 1470 nM; TGI: 3.08 µM

COc1ccc(/C(=N\O)c2cc(C)c(OC)c(C)c2)cc1O was tested. Which GI50 did it give?
Its GI50 is 14.6 nM.

What about the TGI of the same compound?
The TGI was greater than 100 µM.

With CCC[CH2][Sn]([CH2]CCC)([CH2]CCC)[O]C(=O)c1ccc(Cl)cc1Cl as the compound, how does the GI50 read?
Its GI50 is 133 nM.

What about the TGI of the same compound?
The TGI was 0.274 µM.

What does the source list for CC(C)COCC(CN(Cc1ccccc1)c1ccccc1)N1CCCC1 (stereo not given)?
GI50: 1820 nM; TGI: 6.56 µM

Which GI50 does the source give for COc1cccc(OCCCN)c1-c1cc(Nc2cnc(C#N)cn2)n[nH]1 here?
Its GI50 is 40.7 nM.

And the TGI?
Its TGI is 2.04 µM.

With CN(C)CC1C(=O)O[C@H]2[C@H]1CC/C(COC(=O)c1cc3ccccc3[nH]1)=C\CC[C@@]1(C)O[C@@H]21 (stereo not given in full) as the compound, how does the GI50 read?
The GI50 was 1440 nM.

And the TGI?
Its TGI is 3.14 µM.

Which results are given for COC(=O)CCC1CCC(c2cc(F)ccc2F)(S(=O)(=O)c2ccc(Cl)cc2)CC1 (stereo not given)?
GI50: 16300 nM; TGI: > 100 µM

Which results are given for Nc1nc(N)c2c(n1)NC(c1ccc(F)cc1)C1CCc3ccccc3C1=N2 (stereo not given)?
GI50: 1430 nM; TGI: 6.7 µM

CC(=O)c1cccc(Nc2nc3ccc(Cl)cc3c3[nH]c4ccccc4c23)c1 was tested. Which GI50 did it give?
Its GI50 is 2840 nM.

And the TGI?
Its TGI is 96.8 µM.

With Oc1ccccc1CNCC12CC3CC(CC(C3)C1)C2 as the compound, how does the GI50 read?
Its GI50 is 12800 nM.

What about the TGI of the same compound?
The TGI was 31.7 µM.

Which results are given for N#CC1=C(N)Oc2c(sc3c(Br)cccc23)C1c1ccc(Br)cc1 (stereo not given)?
GI50: 763 nM; TGI: 11.4 µM

COc1cccc2c1C(=O)c1c(O)c3c(c(O)c1C2=O)C[C@@](O)(C(=O)CO)C[C@@H]3O[C@H]1C[C@H](N)[C@@H](O)[C@H](C)O1 was tested. Which GI50 did it give?
The GI50 was 94 nM.

What about the TGI of the same compound?
The TGI was 0.304 µM.

With COc1cc(/C=C/C(=O)c2c(C)nc3ccccc3c2/C=C/c2ccc(C)cc2)cc(OC)c1OC as the compound, how does the GI50 read?
The GI50 was 1880 nM.

And the TGI?
The TGI was 4.26 µM.

For COc1cc(Cl)cc(-c2nn(-c3cccc(NC(=O)Nc4cc(C(F)(F)F)cc(C(F)(F)F)c4)c3)cc2-c2ccncc2)c1, which GI50 is on record?
The GI50 was 349 nM.

What about the TGI of the same compound?
The TGI was 3.15 µM.

For CCCCCCCCCCC(C(O)c1ccccc1)N1CCCCC1 (stereo not given), which GI50 is on record?
The GI50 was 1580 nM.

What about the TGI of the same compound?
The TGI was 3.09 µM.

How did the GI50 turn out when Nc1nc2n[nH]nc2c(=O)[nH]1 was run?
Its GI50 is 81.7 nM.

What about the TGI of the same compound?
The TGI was 0.792 µM.

Which GI50 does the source give for C=C1C(=O)O[C@H]2[C@H]1CCC(/C=N/c1ncc(Br)cc1N)=C\CC[C@@]1(C)O[C@@H]21 here?
The GI50 was 1200 nM.

What about the TGI of the same compound?
Its TGI is 3.91 µM.

How did the GI50 turn out when Clc1ccc2nnnn2n1 was run?
Its GI50 is 5060 nM.

And the TGI?
The TGI was 25.1 µM.

For COc1cc2c(cc1OCCCCCOc1ccc(-n3c(C)nc4ccccc4c3=O)cc1)N=C[C@@H]1CCCN1C2=O, which GI50 is on record?
Its GI50 is 168 nM.

What about the TGI of the same compound?
The TGI was 0.462 µM.

What does the source list for C=C(C)[C@@H]1CC[C@]2(C)[C@H](CC=C3[C@@H]4[C@@H](C)[C@H](C)CC[C@]4(C(N)=O)CC[C@]32C)[C@@]1(C)CCC#N?
GI50: 3150 nM; TGI: 12.8 µM

How did the GI50 turn out when O=C1C=CC[C@H](/C=C/c2ccccc2)O1 was run?
Its GI50 is 1940 nM.

And the TGI?
Its TGI is 11.5 µM.

COC(=O)C1CCCN1C(=O)[C@@H]1CCCN1C(=O)[C@H](Cc1c[nH]c2ccccc12)NC(=S)Nc1cc(C(F)(F)F)cc(C(F)(F)F)c1 (stereo not given in full) was tested. Which GI50 did it give?
Its GI50 is 1780 nM.

And the TGI?
The TGI was 4.64 µM.

How did the GI50 turn out when O=C(Nc1ccc2[nH]c(=S)sc2c1)Nc1ccccc1F was run?
The GI50 was 17700 nM.

What about the TGI of the same compound?
The TGI was greater than 100 µM.

What does the source list for OC(CNCC1CCCO1)Cn1c2ccc(Cl)cc2c2cc(Cl)ccc21 (stereo not given)?
GI50: 1650 nM; TGI: 3.2 µM

For CC1(O)CC(c2nc(-c3ccc4ccc(-c5ccccc5)nc4c3)c3c(N)nccn23)C1 (stereo not given), which GI50 is on record?
The GI50 was 3020 nM and 2900 nM.

What about the TGI of the same compound?
The TGI was 12.8 µM and > 10 µM.

For COc1ccc(/C=C(\C#N)n2nnc3ccccc32)cc1, which GI50 is on record?
Its GI50 is 272 nM.

And the TGI?
The TGI was 4.1 µM.

How did the GI50 turn out when COc1ccc(S(=O)(=O)Nc2cc(/C=C\c3cc(OC)c(OC)c(OC)c3)ccc2OC)cc1 was run?
Its GI50 is 168 nM.

What about the TGI of the same compound?
Its TGI is greater than 100 µM.

Which results are given for Cc1cc(NCc2cc(Nc3ccnc4cc(Cl)ccc34)ccc2F)nc(N2CCN(C)CC2)n1?
GI50: 1700 nM; TGI: 3.52 µM
